Laboratory results as given in article PMC8213057, “Targeting ALK2: An Open Science Approach to Developing Therapeutics for the Treatment of Diffuse Intrinsic Pontine Glioma” (Journal of Medicinal Chemistry, 2020).

How the values were obtained:
P38a/MAPK14 = P38a/MAPK14 (Homo sapiens, UniProt Q16539); assay: biochemical; details: read-out: % enzyme activity, 1 μM; Run 1, Run 2
ROCK1 = ROCK1 (Homo sapiens, UniProt Q13464); assay: biochemical; details: read-out: % enzyme activity, 1 μM; Run 1, Run 2
Sequence of ROCK1 (Q13464 whole entry): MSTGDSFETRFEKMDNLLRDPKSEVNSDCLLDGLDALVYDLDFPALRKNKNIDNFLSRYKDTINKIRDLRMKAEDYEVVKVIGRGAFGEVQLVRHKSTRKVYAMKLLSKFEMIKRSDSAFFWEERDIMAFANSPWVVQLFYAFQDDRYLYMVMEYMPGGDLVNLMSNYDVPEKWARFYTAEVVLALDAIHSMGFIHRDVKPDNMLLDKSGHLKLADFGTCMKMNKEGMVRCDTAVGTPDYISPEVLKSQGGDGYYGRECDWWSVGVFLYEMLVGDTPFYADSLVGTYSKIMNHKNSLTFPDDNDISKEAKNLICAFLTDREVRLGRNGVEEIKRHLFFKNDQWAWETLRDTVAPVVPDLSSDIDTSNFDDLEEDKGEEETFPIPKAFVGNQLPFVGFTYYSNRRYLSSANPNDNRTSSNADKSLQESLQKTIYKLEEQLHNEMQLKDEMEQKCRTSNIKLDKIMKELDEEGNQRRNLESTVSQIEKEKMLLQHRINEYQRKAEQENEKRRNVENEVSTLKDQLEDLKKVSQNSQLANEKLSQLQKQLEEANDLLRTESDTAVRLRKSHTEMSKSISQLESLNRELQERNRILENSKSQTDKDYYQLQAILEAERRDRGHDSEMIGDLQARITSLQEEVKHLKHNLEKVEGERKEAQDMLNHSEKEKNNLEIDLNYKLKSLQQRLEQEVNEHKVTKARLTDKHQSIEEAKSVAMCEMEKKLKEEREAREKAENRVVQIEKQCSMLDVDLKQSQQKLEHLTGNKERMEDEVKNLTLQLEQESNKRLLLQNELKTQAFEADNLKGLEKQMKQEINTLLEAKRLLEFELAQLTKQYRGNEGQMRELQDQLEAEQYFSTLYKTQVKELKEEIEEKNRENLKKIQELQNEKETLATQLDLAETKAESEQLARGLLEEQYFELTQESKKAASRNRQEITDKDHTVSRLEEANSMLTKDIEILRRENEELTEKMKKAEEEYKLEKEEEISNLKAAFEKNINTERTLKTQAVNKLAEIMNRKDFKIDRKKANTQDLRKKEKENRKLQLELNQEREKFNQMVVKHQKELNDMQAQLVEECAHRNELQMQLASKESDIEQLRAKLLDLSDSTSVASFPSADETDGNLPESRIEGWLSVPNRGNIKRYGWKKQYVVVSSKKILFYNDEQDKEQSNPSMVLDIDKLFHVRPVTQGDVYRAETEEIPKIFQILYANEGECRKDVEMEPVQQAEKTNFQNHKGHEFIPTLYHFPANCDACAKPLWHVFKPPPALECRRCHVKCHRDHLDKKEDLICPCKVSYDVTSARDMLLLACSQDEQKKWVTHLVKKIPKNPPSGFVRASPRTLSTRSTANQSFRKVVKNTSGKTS

CDK16/cyclin Y (PCTAIRE) = CDK16/cyclin Y (PCTAIRE) (Homo sapiens, UniProt Q00536); details: 1 μM; Run 1, Run 2
Sequence of CDK16/cyclin Y (PCTAIRE) (Q00536 whole entry): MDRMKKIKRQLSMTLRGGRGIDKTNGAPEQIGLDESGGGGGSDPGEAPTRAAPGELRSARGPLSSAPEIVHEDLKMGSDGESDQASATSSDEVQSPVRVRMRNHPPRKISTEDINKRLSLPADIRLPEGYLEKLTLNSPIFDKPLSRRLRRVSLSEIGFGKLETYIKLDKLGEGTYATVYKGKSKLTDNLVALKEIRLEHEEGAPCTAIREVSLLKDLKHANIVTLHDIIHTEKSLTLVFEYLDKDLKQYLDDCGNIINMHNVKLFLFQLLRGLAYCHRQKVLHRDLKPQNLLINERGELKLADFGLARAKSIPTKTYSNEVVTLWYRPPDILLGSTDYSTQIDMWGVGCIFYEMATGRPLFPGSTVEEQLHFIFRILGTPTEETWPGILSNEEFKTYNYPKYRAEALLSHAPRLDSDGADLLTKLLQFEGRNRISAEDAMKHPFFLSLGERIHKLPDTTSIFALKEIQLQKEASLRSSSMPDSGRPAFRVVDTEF
Sequence of CDK16/cyclin Y (PCTAIRE) (Q8ND76 whole entry partner): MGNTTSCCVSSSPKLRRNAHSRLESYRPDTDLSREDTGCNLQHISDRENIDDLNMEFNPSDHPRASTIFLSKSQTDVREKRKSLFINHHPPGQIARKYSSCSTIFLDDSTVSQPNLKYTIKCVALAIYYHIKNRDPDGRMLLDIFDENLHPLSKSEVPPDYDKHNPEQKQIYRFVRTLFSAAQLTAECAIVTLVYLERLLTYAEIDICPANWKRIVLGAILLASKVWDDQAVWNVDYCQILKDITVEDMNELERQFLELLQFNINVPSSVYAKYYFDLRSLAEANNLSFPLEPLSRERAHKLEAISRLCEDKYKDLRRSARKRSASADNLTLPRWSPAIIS

YES/YES1 = YES/YES1 (Homo sapiens, UniProt P07947); assay: biochemical; details: read-out: % enzyme activity, 1 μM; Run 1, Run 2
Sequence of YES/YES1 (P07947 whole entry): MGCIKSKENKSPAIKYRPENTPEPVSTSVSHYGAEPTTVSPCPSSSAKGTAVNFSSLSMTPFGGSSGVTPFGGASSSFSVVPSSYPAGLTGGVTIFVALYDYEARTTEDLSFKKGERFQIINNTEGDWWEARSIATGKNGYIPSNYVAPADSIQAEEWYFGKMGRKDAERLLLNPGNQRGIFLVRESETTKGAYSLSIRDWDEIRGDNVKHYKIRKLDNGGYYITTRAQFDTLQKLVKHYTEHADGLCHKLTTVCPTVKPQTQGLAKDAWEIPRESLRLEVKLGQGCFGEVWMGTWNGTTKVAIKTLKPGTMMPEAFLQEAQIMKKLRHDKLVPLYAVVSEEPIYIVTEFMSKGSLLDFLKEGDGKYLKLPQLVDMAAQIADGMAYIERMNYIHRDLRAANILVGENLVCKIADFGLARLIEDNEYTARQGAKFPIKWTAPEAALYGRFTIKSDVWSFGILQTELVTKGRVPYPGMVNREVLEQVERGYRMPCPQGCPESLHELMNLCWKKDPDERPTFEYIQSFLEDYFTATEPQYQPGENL

ALK2/ACVR1 = molecular target: T1, ALK2/ACVR1 (Homo sapiens, UniProt Q04771); assay: biochemical; details: Run 1, Run 2; for % enzyme activity: 1 μM; for remaining activity at 1 µM: read-out: % enzyme activity, 1 μM
T1 construct: purchased Reaction Biology Corporation
T1 sequence (Q04771 21-509): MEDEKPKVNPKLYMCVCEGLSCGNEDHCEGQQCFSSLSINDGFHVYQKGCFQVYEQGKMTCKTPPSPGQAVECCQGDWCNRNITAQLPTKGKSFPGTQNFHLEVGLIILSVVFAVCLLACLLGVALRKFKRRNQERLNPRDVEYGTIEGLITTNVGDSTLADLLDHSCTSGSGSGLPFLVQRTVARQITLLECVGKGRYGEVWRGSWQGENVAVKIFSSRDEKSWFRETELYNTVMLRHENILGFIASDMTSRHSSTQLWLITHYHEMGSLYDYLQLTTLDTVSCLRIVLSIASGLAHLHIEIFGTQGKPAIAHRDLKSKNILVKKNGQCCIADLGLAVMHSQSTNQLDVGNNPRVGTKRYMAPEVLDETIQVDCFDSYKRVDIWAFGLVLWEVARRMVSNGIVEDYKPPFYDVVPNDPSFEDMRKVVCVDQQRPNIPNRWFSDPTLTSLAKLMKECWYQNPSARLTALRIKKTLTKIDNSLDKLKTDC

ULK3 = molecular target: T2, ULK3 (Homo sapiens, UniProt Q6PHR2); details: 1 μM; Run 1, Run 2
T2 sequence (Q6PHR2 1-472): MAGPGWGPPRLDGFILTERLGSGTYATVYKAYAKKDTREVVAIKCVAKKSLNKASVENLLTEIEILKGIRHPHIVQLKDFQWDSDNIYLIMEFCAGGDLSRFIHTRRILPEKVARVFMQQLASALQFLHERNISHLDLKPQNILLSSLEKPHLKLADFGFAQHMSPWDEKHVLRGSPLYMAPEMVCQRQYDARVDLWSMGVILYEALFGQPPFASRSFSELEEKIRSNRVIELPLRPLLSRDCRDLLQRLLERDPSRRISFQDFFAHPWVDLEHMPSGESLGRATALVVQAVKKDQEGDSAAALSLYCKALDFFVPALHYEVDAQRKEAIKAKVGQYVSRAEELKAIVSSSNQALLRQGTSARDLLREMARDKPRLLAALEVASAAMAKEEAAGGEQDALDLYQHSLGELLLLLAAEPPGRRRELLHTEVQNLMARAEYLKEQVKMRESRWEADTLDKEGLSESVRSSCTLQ

EPHA3 = molecular target: T3, EPHA3 (Homo sapiens, UniProt P29320); assay: biochemical; details: read-out: % enzyme activity, 1 μM; Run 1, Run 2
T3 sequence (P29320 21-983): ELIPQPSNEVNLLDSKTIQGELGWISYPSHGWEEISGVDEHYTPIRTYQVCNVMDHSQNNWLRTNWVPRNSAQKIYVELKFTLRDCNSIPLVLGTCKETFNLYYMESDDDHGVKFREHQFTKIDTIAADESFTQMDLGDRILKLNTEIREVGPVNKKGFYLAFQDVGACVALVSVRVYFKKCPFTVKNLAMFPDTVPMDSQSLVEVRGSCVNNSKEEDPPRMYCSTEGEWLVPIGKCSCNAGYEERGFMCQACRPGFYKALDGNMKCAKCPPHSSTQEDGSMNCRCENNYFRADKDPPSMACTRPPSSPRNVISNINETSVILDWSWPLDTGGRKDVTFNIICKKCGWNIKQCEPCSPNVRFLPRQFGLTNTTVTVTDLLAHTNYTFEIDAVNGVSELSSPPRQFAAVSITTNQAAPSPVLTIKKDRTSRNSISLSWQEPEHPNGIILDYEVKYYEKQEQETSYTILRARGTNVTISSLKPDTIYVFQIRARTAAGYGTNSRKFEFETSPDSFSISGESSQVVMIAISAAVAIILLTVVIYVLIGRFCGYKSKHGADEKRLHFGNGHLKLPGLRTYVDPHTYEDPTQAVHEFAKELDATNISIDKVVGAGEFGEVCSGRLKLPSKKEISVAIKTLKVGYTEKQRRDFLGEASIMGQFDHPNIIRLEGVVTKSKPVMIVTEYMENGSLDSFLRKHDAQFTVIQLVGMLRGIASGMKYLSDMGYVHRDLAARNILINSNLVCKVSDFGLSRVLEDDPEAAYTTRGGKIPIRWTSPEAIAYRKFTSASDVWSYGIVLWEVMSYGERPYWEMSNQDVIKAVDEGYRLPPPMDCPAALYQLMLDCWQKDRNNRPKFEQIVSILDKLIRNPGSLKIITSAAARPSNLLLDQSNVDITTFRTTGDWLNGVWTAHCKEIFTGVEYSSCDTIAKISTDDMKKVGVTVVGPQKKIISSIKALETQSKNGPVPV

Sequence of P38a/MAPK14 (Q16539 whole entry): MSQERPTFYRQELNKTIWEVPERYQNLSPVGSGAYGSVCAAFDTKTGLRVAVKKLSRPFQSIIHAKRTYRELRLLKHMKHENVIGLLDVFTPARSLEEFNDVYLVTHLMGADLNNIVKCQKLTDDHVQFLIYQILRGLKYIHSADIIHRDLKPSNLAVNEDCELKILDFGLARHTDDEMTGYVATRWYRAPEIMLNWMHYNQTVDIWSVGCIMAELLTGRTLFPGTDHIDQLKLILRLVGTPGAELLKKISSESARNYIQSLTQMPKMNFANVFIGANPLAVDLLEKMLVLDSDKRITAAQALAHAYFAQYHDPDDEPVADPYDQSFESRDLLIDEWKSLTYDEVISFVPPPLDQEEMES

Compound	remaining activity at 1 µM (P38a/MAPK14)	remaining activity at 1 µM (ROCK1)	% enzyme activity (CDK16/cyclin Y (PCTAIRE))	remaining activity at 1 µM (YES/YES1)	% enzyme activity (ALK2/ACVR1)	remaining activity at 1 µM (ALK2/ACVR1)	% enzyme activity (ULK3)	remaining activity at 1 µM (EPHA3)
COc1cc(-c2cncc(-c3ccc(N4CCN(C)CC4)cc3)c2C)cc(F)c1C(N)=O [Compound 26a, 2-Fluoro-6-methoxy-4-(4-methyl-5-(4-(4-methylpiperazin-1-yl)phenyl)pyridin-3-yl)benzamide]	92.7%	95%	93.35%	105%	8.63%	9.92%	91.23%	95.7%
COc1cc(-c2cncc(-c3ccc(N4C[C@@H](C)N(C)[C@@H](C)C4)cc3)c2C)cc(F)c1C(N)=O [Compound 26c, 2-Fluoro-6-methoxy-4-(4-methyl-5-(4-((3R,5S)-3,4,5-trimethylpiperazin-1-yl)phenyl)pyridin-3-yl)benzamide]	97%	94.7%	92.26%	109%	11.70%	13.7%	97.24%	101%
